Measurements taken from patent publication US10233186B2, “Inhibitors of activin receptor-like kinase” (BLUEPRINT MEDICINES CORPORATION, priority 2016, dated 2019).

Legend:
[1] = biological target: T1, ALK2 R206H (GST-tagged mutant ALK2) (Homo sapiens, UniProt Q04771, R206H); experiment: ALK binding assay (LANTHASCREEN TR-FRET competitive binding, displacement of Kinase Tracer 178); conditions: ALK2 R206H, LANTHASCREEN TR-FRET competitive binding; read-out: Binding Assay (IC50)
T1 construct: purchased Carna Bioscience or ThermoFisher 09-148 or PV6232
T1 sequence (Q04771 21-509 R206H): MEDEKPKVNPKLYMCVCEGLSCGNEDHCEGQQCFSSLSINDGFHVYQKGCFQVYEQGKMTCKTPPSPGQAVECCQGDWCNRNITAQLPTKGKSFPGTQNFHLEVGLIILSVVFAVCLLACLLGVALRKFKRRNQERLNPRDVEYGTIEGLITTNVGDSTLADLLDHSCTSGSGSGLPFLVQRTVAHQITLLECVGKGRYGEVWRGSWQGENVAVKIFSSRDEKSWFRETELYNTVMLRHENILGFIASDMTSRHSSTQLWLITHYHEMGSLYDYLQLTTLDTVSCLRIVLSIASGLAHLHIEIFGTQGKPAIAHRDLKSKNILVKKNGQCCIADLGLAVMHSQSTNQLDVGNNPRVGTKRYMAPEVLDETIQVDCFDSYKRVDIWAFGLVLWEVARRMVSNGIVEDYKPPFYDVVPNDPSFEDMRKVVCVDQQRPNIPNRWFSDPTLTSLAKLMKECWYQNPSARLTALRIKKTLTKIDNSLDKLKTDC

human ALK2 R206H = biological target: T2, human ALK2 R206H (Homo sapiens, UniProt Q04771, R206H); experiment: Cell-based ALK2-R206H cell activity assay (Smad1-Ser463/Ser465 phosphorylation by AlphaLISA in HEK293-ALK2-R206H cells); conditions: read-out: Cell Line (Cell Assay IC50)
T2 construct: expressed in transfected cells; host or cells: HEK293 (ATCC CRL1573), lentivirus transduction, blasticidin selection
T2 sequence (Q04771 21-509 R206H): T1 sequence (Q04771 21-509 R206H)
Protocol: A HEK293 (ATCC, Cat^# CRL1573) based stable cell line expressing human ALK2 R206H cDNA (synthesized by GeneScript, Piscataway, N.J.) and a FLAG tag at the C-terminus was generated by lentivirus transduction and subsequent blasticidin (Life Technologies, Cat^#-A1113902) selection at 10 μg/ml for >2 wks. This cell line was named HEK293-ALK2-R206H.
Test compounds were first diluted to 4 mM or 0.4 mM and then serially diluted 3-fold into 10 different concentrations using DMSO. […] Two μl of the diluted compounds were then dispensed into the HEK293-ALK2-R206H cell-containing wells of the microplates in duplicates. In this way, each compound was tested in 10 doses (3-fold serial dilution with the top concentration being 10 μM or 1 μM). Liquid handling was achieved using a Bravo Automated Liquid Handling Platform (Agilent Technologies). DMSO without compound was used as a negative control. The positive control was 1 μM LDN193189, a known bone morphogenetic protein (BMP inhibitor).
The 10-point dose response curve was used to calculate the IC50 values.
Blank values in the table indicate that the particular compound was not tested in this assay.

Row | SMILES | IC50 [1] [nM] | IC50 (human ALK2 R206H) [nM]
1 | CCNC(=O)N1CCN(c2ccnn3cc(-c4cc5c(s4)CN(C(C)C)CC5)cc23)CC1 [Compound 192] | < 10 | < 100
2 | CCNC(=O)N1CCN(c2ccnn3cc(-c4nc5c(s4)CN(C(C)C)CC5)cc23)CC1 [Compound 193] | < 10 | < 100
3 | O=C(C1CC1)N1CCN(c2ccnn3cc(-c4cnn(C5CNCC(F)(F)C5)c4)cc23)CC1 (stereo not drawn) [Compound 194, cyclopropyl(4-(6-(1-(5,5-difluoropiperidin-3-yl)-1H-pyrazol-4-yl)pyrrolo[1,2-b]pyridazin-4-yl)piperazin-1-yl)methanone] | 10 to 50 | 100 to 500
4 | N#C[C@H]1C[C@@H]1C(=O)N1CCN(c2ccnn3cc(-c4ccc(C5CNCCO5)cc4)cc23)CC1 (stereo partly drawn) [Compound 195] | < 10 | < 100
5 | O=C(C1CC1)N1CCN(c2ccnn3cc(-c4ccc(N5CCN6CCC6C5)cc4)cc23)CC1 (stereo not drawn) [Compound 196] | < 10 | 100 to 500
6 | O=C(C1CC1)N1CCN(c2ccnn3cc(-c4ccc(N5CC6(CCNC6)C5)cc4)cc23)CC1 [Compound 197] | 10 to 50 | 100 to 500
7 | C[C@@H]1CN(c2ccnn3cc(-c4ccc(N5CCNCC5)cc4)cc23)CCN1C(=O)CCC#N [Compound 199] | < 10 | < 100
8 | CCN1CCC(c2ccc(-c3cc4c(N5CCN(C(=O)C6CC6)CC5)ccnn4c3)cc2)CC1 [Compound 200] | < 10 | < 100
9 | CC(C)N1CCC(c2ccc(-c3cc4c(N5CCN(C(=O)C6CC6)CC5)ccnn4c3)cc2)C1 (stereo not drawn) [Compound 201] | < 10 | < 100
10 | CCN1CCCC(c2ccc(-c3cc4c(N5CCN(C(=O)C6CC6)CC5)ccnn4c3)cc2)C1 (stereo not drawn) [Compound 202] | < 10 | < 100
11 | CC(C)N1CC[C@@H](c2ccc(-c3cc4c(N5CCN(C(=O)C6CC6)CC5)ccnn4c3)cc2)C1 [Compound 203] | < 10 | < 100
12 | CC(C)N1CC[C@H](c2ccc(-c3cc4c(N5CCN(C(=O)C6CC6)CC5)ccnn4c3)cc2)C1 [Compound 204] | < 10 | < 100
13 | CCN1CCC(c2ccc(-c3cc4c(N5CCN(C(=O)CC6CC6)CC5)ccnn4c3)cc2)C1 (stereo not drawn) [Compound 205] | 10 to 50 | 100 to 500
14 | CCN1CCC[C@H](c2ccc(-c3cc4c(N5CCN(C(=O)C6CC6)CC5)ccnn4c3)cc2)C1 [Compound 207] | < 10 | < 100
15 | CCN1CCC(c2ccc(-c3cc4c(N5CCN(C(=O)[C@H]6C[C@@H]6C)CC5)ccnn4c3)cc2)C1 (stereo partly drawn) [Compound 208] | < 10 | < 100
16 | CC(C)N1CCCC1c1ccc(-c2cc3c(N4CCN(C(=O)C5CC5)CC4)ccnn3c2)cc1 (stereo not drawn) [Compound 209] | < 10 | < 100
17 | CC(C)N1CCC[C@H]1c1ccc(-c2cc3c(N4CCN(C(=O)C5CC5)CC4)ccnn3c2)cc1 [Compound 210] | < 10 | < 100

Row | SMILES | IC50 [1] [nM] | IC50 (human ALK2 R206H) [nM]
18 | CC(C)N1CCC[C@@H]1c1ccc(-c2cc3c(N4CCN(C(=O)C5CC5)CC4)ccnn3c2)cc1 [Compound 211] | < 10 | < 100
19 | CN1CCN(c2ccc(-c3cc4c(N5CCN(C(=O)C6CCC6)CC5)ccnn4c3)cc2)CC1 [Compound 212] | < 10 | 100 to 500
20 | CCN1CCN(c2ccc(-c3cc4c(N5CCN(C(=O)C6CC6)CC5)ccnn4c3)cc2)CC1 [Compound 213] | < 10 | < 100
21 | CCN1CCOC(c2ccc(-c3cc4c(N5CCN(C(=O)C6CC6)CC5)ccnn4c3)cc2)C1 (stereo not drawn) [Compound 214, cyclopropyl(4-(6-(4-(4-ethylmorpholin-2-yl)phenyl)pyrrolo[1,2-b]pyridazin-4-yl)piperazin-1-yl)methanone] | 10 to 50 | 100 to 500
22 | CCN1CCC(Oc2ccc(-c3cc4c(N5CCN(C(=O)C6CC6)CC5)ccnn4c3)cc2)C1 (stereo not drawn) [Compound 216] | < 10 | < 100
23 | CCN1CC(COc2ccc(-c3cc4c(N5CCN(C(=O)C6CC6)CC5)ccnn4c3)cc2)C1 [Compound 217] | < 10 | 100 to 500
24 | CC(C)N1CC(O)(c2ccc(-c3cc4c(N5CCN(C(=O)C6CC6)CC5)ccnn4c3)cc2)C1 [Compound 219] | < 10 | < 100
25 | CCN1CCN(c2ccc(-c3cc4c(N5CCN(C(=O)C6CC6)CC5)ccnn4c3)cn2)CC1 [Compound 221] | < 10 | 100 to 500
26 | CCN1CCN(c2ccc(-c3cc4c(N5CCN(C(=O)C6CC6)CC5)ccnn4c3)nc2)CC1 [Compound 222] | < 10 | < 100
27 | CCN1CCN(c2ccc(-c3cc4c(N5CCN(C(=O)C(C)C)CC5)ccnn4c3)cc2)CC1 [Compound 223] | 10 to 50 | 100 to 500
28 | CCNC(=O)N1CCN(c2ccnn3cc(-c4ccc([C@@H]5CCN(C(C)C)C5)cc4)cc23)CC1 [Compound 224] | < 10 | < 100
29 | CCNC(=O)N1CCN(c2ccnn3cc(-c4ccc([C@H]5CCN(C(C)C)C5)cc4)cc23)CC1 [Compound 225] | < 10 | < 100
30 | CCN1CC[C@H](c2ccc(-c3cc4c(N5CCN(C(=O)[C@H]6C[C@H]6F)CC5)ccnn4c3)cc2)C1 [Compound 226] | < 10 | < 100
31 | CCN1CC[C@@H](c2ccc(-c3cc4c(N5CCN(C(=O)[C@H]6C[C@H]6F)CC5)ccnn4c3)cc2)C1 [Compound 227] | < 10 | < 100
32 | CCN1CC(F)C(c2ccc(-c3cc4c(N5CCN(C(=O)C6CC6)CC5)ccnn4c3)cc2)C1 (stereo not drawn) [Compound 228] | < 10 | < 100
33 | O=C(C1CCC1)N1CCN(c2ccnn3cc(-c4ccc(C5(F)CCCNC5)cc4)cc23)CC1 (stereo not drawn) [Compound 229] | < 10 | < 100

Now from value to compound:

Row | IC50 [1] [nM] | IC50 (human ALK2 R206H) [nM] | SMILES
34 | < 10 | < 100 | CCOC(=O)N1CCN(c2ccnn3cc(-c4ccc(C5CCN(CC)CC5)cc4)cc23)CC1 [Compound 230, ethyl 4-(6-(4-(1-ethylpiperidin-4-yl)phenyl)pyrrolo[1,2-b]pyridazin-4-yl)piperazine-1-carboxylate]
35 | < 10 | < 100 | CCOC(=O)N1CCN(c2ccnn3cc(-c4ccc([C@H]5CCN(C(C)C)C5)cc4)cc23)CC1 [Compound 231]
36 | < 10 | 100 to 500 | COC(=O)N1CCN(c2ccnn3cc(-c4ccc(C5CCN(C(C)C)CC5)cc4)cc23)CC1 [Compound 232]
37 | < 10 | < 100 | O=C(C1CC(F)C1)N1CCN(c2ccnn3cc(-c4ccc(N5CCNCC5)cc4)cc23)CC1 (stereo not drawn) [Compound 234]
38 | < 10 | 100 to 500 | CCNC(=O)N1CCN(c2ccnn3cc(-c4ccc(C5(O)CN(C(C)C)C5)cc4)cc23)CC1 [Compound 235]
39 | < 10 | 100 to 500 | CCOC(=O)N1CCN(c2ccnn3cc(-c4ccc(OC5CN(C(C)C)C5)cc4)cc23)CC1 [Compound 236]
40 | < 10 | < 100 | [2H]C([2H])([2H])C([2H])([2H])N1CCN(c2ccc(-c3cc4c(N5CCN(C(=O)C6CC6)CC5)ccnn4c3)cc2)CC1 [Compound 237]
41 | < 10 | 100 to 500 | O=C(C1CC1)N1CCN(c2ccnn3cc(-c4ccc(C5CCNCC5(F)F)cc4)cc23)CC1 (stereo not drawn) [Compound 238]
42 | < 10 | < 100 | [2H]C([2H])([2H])C([2H])([2H])N1CCN(c2ccc(-c3cc4c(N5CCN(C(=O)NCC)CC5)ccnn4c3)cc2)CC1 [Compound 240]
43 | < 10 | < 100 | CCN1CC2(C1)CN(c1ccc(-c3cc4c(N5CCN(C(=O)C6CC6)CC5)ccnn4c3)cc1)C2 [Compound 241]
44 | < 10 | 100 to 500 | CCN1C[C@@H]2C[C@H]1CN2c1ccc(-c2cc3c(N4CCN(C(=O)C5CC5)CC4)ccnn3c2)cc1 [Compound 242]
45 | < 10 | < 100 | O=C(C1CC1)N1CCN(c2ccnn3cc(-c4ccc(N5CCN6CCCC6C5)cc4)cc23)CC1 (stereo not drawn) [Compound 243]
46 | 10 to 50 | 100 to 500 | CC(=O)N1CCC(c2ccc(-c3cc4c(N5CCN(C(=O)C6CC6)CC5)ccnn4c3)cc2)CC1 [Compound 245]
47 | < 10 | < 100 | CC(C)N1CCC(c2ccc(-c3cc4c(N5CCN(C(=O)C6CC6)CC5)ccnn4c3)cc2)CC1 [Compound 246]
48 | < 10 | < 100 | CC(C)N1CCC[C@H](c2ccc(-c3cc4c(N5CCN(C(=O)C6CC6)CC5)ccnn4c3)cc2)C1 [Compound 247]
